According to patent publication US5760016A, “Use of mono-3,6-anhydrocyclodextrins for solubilizing a hydrophobic compound and for controlling the purity of an enantiomer and process for the preparation of these cyclodextrins” (priority 1993, dated 1998):
≈ marks a conversion by molar mass, not a printed value. Blank lines part the entries; values can stand above or below the molecule they belong to.

Assays:
[1] = background; cited from earlier work
[2] = Solubility in water of cyclodextrins
physchem = conditions: water
human erythrocytes = experiment: Hemolysis of human erythrocytes by the cyclodextrin derivative; assay type: cell-based; conditions: 50 mmole/l
[3] = as above; assay type: cell-based; conditions: erythrocytes; 5 mmole/l, 0.4 ml of human erythrocyte suspension, pH 7.4, 30 min, 37° C.; read-out: hemolysis percentage
[4] = 25° C., without cyclodextrin; cited from earlier work
[5] = Solubility of prednisolone in water, alone or in the presence of a cyclodextrin; assay type: physicochemical
Protocol: 10 μmole of mono-3,6-anhydrocyclomaltoheptaose prepared in example 1 are dissolved in 1 ml of pure water (apyrogenic water for injections) and addition takes place of 5 μmole of prednisolone in the form of a 50 mmole/l concentrated solution in acetone. The acetone is eliminated under nitrogen bubbling and the solution lyophilized.
The residual solid, which contains 10 μmole of the cyclodextrin derivative and 5 μmole of prednisolone, is redissolved in the minimum of water at 25° C.

Structure (SMILES): COC[C@H]1O[C@@H]2O[C@H]3[C@H](O)[C@@H](OC)[C@@H](O[C@H]4[C@H](O)[C@@H](OC)[C@@H](O[C@H]5[C@H](O)[C@@H](OC)[C@@H](O[C@H]6[C@H](O)[C@@H](OC)[C@@H](O[C@H]7[C@H](O)[C@@H](OC)[C@@H](O[C@H]8[C@H](O)[C@@H](OC)[C@@H](O[C@H]1[C@H](O)[C@H]2OC)O[C@@H]8COC)O[C@@H]7COC)O[C@@H]6COC)O[C@@H]5COC)O[C@@H]4COC)O[C@@H]3COC [2,6-dimethyl-β-cyclodextrin]
solubilizing properties for hydrophobic organic compounds [1]: good properties of solubilizing hydrophobic, organic compounds

solubility in water relative to .chi. and γ-cyclodextrins ([2]; ratio to .chi. and γ-cyclodextrins): at least twice | solubility in water relative to the original cyclodextrin ([2]; ratio to original cyclodextrin (18 g/l), 25° C.): ~30 times | solubility (physchem): 520 mg/mL (≈ 466 mM)
Structure (SMILES): OC[C@H]1O[C@@H]2O[C@H]3[C@H](O)[C@@H](O)[C@@H](O[C@H]4[C@H](O)[C@@H](O)[C@@H](O[C@H]5[C@@H]6OC[C@H]5O[C@H](O[C@H]5[C@H](O)[C@@H](O)[C@@H](O[C@H]7[C@H](O)[C@@H](O)[C@@H](O[C@H]8[C@H](O)[C@@H](O)[C@@H](O[C@H]1[C@H](O)[C@H]2O)O[C@@H]8CO)O[C@@H]7CO)O[C@@H]5CO)[C@@H]6O)O[C@@H]4CO)O[C@@H]3CO [mono-3,6-anhydrocyclomaltoheptaose]
hemolytic properties at much higher concentrations (human erythrocytes): no hemolysis detectable | hemolysis at 0.5 h, 5000 µM [3]: 0%

Structure (SMILES): C[C@]12C=CC(=O)C=C1CC[C@@H]1[C@@H]2[C@@H](O)C[C@@]2(C)[C@H]1CC[C@]2(O)C(=O)CO [prednisolone]
solubility in water of prednisolone [4]: 0.25 mg/mL | solubility ([5]; 25° C., in the presence of mono-3,6-anhydrocyclomaltoheptaose at 200 mmole/l, read-out: maximum prednisolone solubility in water): 100 mM | solubility ([5]; prednisolone solubility in the presence of β-cyclodextrin, same conditions, with β-cyclodextrin): 9 mM

Structure (SMILES): OC[C@H]1O[C@@H]2O[C@H]3[C@H](O)[C@@H](O)[C@@H](O[C@H]4[C@H](O)[C@@H](O)[C@@H](O[C@H]5[C@H](O)[C@@H](O)[C@@H](O[C@H]6[C@H](O)[C@@H](O)[C@@H](O[C@H]7[C@H](O)[C@@H](O)[C@@H](O[C@H]8[C@H](O)[C@@H](O)[C@@H](O[C@H]1[C@H](O)[C@H]2O)O[C@@H]8CO)O[C@@H]7CO)O[C@@H]6CO)O[C@@H]5CO)O[C@@H]4CO)O[C@@H]3CO [β-cyclodextrin, cyclomaltoheptaose]
hemolysis at 0.5 h, 5000 µM [3]: 50%
